From patent publication US6489364B2, “Antiviral protease inhibitors” (priority 1997, dated 2002) come the findings set out here.

Molecules are shown by their SMILES. ≈ marks a conversion by molar mass, not a printed value. Like-named read-outs stand apart in the source and are kept apart here.

For one assay, the target named is T1, purified HIV proteinase (Human immunodeficiency virus type 1 group M subtype B, UniProt P04585).
T1 construct: purified HIV proteinase
Description: biochemical. The protocol: Representative compounds were tested for HIV protease activity in a spectrophotometric enzyme assay using the chromogenic substrate His-Lys-Ala-Arg-Val-Leu-p-nitro-Phe-Glu-Ala-Nle-Ser-amide and purified HIV proteinase. The rate of cleavage is followed by continuously registering the change in absorbance at 300 nm. […]

For a further assay, the system named is HIV-1. Description: HIV-1 infected MT4 cell culture, XTT assay. Format: cell-based. The protocol: Compounds are also tested for HIV protease activity in cell culture. MT4 cells grown in RPMI 1640 cell culture medium including 10% fetal calf serum are infected with 10 TCID HIV-1 per 2×10^5 cells and cultured for 6 days. XTT is added and the amount of XTT formazan produced in the following 6 hours represents the number of surviving cells. Results are expressed as the ED50, that is the concentration in μg/ml of the compound of the invention which suppresses viral replication by 50%.

The mark [1] stands for this setting: values in parentheses, affinity constant, read-out: (Ki μM).
Where [2] appears, read: Human immunodeficiency virus 1, 144 h, second part of Table 1, head EC50, MT4 cells, HIV-1, 6 days, XTT, read-out: EC50.
The mark [3] stands for this setting: Human immunodeficiency virus 1, MT4, 144 h.

Regarding `CNC(=O)[C@@H](NC(=O)[C@H](OCc1ccccc1)[C@H](O)[C@@H](O)[C@@H](OCc1ccccc1)C(=O)N[C@H](C(=O)NC)C(C)C)C(C)C` [Example 1, N1,N6-di[(1S)-2-methyl-1-(methylcarbamoyl)propyl]-(2R,3R,4R,5R)-2,5-di(benzyloxy)-3,4-dihydroxyhexanediamide], half-maximal inhibition against purified HIV proteinase (IC50) was put at 15 nM.

For the compound `CNC(=O)C(NC(=O)C(CC(O)C(OCc1ccccc1)C(=O)NC(C(=O)NC)C(C)C)OCc1ccccc1)C(C)C` [Example 3, N1,N6-di[(1S)-2-methyl-1-(methylcarbamoyl)propyl]-(2R,3R,5R)-2,5-di(benzaloxy)-3-hydroxyhexanediamide], the IC50 (in general, the concentration needed to halve the response being measured) on purified HIV proteinase (values printed without parentheses, concentration inhibiting enzyme performance by 50%) was 4 nM.

On to `CCC(C)[C@H](NC(=O)[C@H](OCc1ccccc1)[C@H](O)[C@@H](O)[C@@H](OCc1ccccc1)C(=O)N[C@H](C(=O)NC)C(C)CC)C(=O)NC` (stereo partly drawn) [Example 4, N1,N6-di[(1S)-2-methyl-1-(methylcarbamoyl)butyl]-(2R,3R,4R,5R)-2,5-di(benzyloxy)-3,4-dihydroxyhexanediamide], for which, on purified HIV proteinase (setting [1]), the Ki (usually a dissociation constant, usually derived from enzyme kinetics or from competition with a known ligand) amounted to 9 nM.

With `CNC(=O)[C@@H](NC(=O)[C@H](OCc1ccc(F)cc1)[C@H](O)[C@@H](O)[C@@H](OCc1ccc(F)cc1)C(=O)N[C@H](C(=O)NC)C(C)C)C(C)C` [Example 7, N1,N6-di[(1S)-2-methyl-1-(methylcarbamoyl)propyl]-(2R,3R,4R,5R)-2,5-di[(4-fluorobenzyl)oxy]-3,4-dihydroxyhexanediamide], the Ki at purified HIV proteinase (setting [1]) was 2.3 nM.

`CC(C)C(NC(=O)C(OCc1ccccc1)C(O)C(O)C(OCc1ccccc1)C(=O)NC(C(=O)NC1CC1)C(C)C)C(=O)NC1CC1` [Example 8, N1,N6-di[(1S)-2-methyl-1-(cyclopropylcarbamoyl)propyl]-(2R,3 R,4R,5R)-25-di(benzyloxy)-3,4-dihydroxyhexanediamide]: on purified HIV proteinase (setting [1]), the Ki worked out at 3.4 nM.

In the case of `CNC(=O)[C@@H](NC(=O)[C@H](OCc1ccccc1C)[C@H](O)[C@@H](O)[C@@H](OCc1ccccc1C)C(=O)N[C@H](C(=O)NC)C(C)C)C(C)C` [Example 9, N1,N6-di[(1S)-2-methyl-1-(methylcarbamoyl)propyl]-(2R,3R,4R,5R)-2,5-di[(2-methylbenzyl)oxy]-3,4-dihydroxyhexanediamide], the Ki on purified HIV proteinase (setting [1]) worked out at 3.5 nM.

For the compound `O=C(NC1c2ccccc2CC1O)C(OCc1ccccc1)C(O)C(O)C(OCc1ccccc1)C(=O)NC1c2ccccc2CC1O` [Example 10, N1,N6-di[(1S,2R)-2-hydroxy-2,3-dihydro-1H-1-indenyl]-(2R,3R,4R,5R)-2.5-di(benzyloxy)-3,4-dihydroxyhexanediamide], the affinity on purified HIV proteinase corresponds to a Ki of 1.6 nM.

Regarding `CNC(=O)C(NC(=O)C(OCc1ccccc1)C(O)C(O)C(OCc1ccccc1)C(=O)NC1c2ccccc2CC1O)C(C)C` [Example 11, N1-[(1S,2R)-2-hydroxy-2,3-dihydro-1H-1-indenyl]-N6-[(1S)-2-methyl-1-(methylcarbamoyl)propyl]-(2R,3R,4R,5R,)-2,5-di(benzyloxy)-3,4-dihydroxyhexanediamide], the Ki on purified HIV proteinase (setting [1]) came out at 1.2 nM. Also, the EC50 (as a rule, the concentration that produces a half-maximal response) with HIV-1 (setting [2]) came out at 0.2 µg/mL (≈ 0.316 µM).

As to `O=C(N[C@H]1c2ccccc2C[C@H]1O)[C@H](OCc1ccccc1F)[C@H](O)[C@@H](O)[C@@H](OCc1ccccc1F)C(=O)N[C@H]1c2ccccc2C[C@H]1O` [Example 12, N1,N6-di[(1S,2R)-2-hydroxy-2,3-dihydro-1H-1-indenyl]-(2R,3R,4R,5R)-2,5-di(2-fluorobenzyloxy)-3,4-dihydroxyhexanediamide], the Ki on purified HIV proteinase (setting [1]) stood at 0.13 nM. For the same compound, the EC50 in the assay on HIV-1 (setting [2]) came out at 0.04 µg/mL (≈ 0.0581 µM).

On to `O=C(N[C@H]1c2ccccc2C[C@H]1O)[C@H](OCc1ccc(F)cc1)[C@H](O)[C@@H](O)[C@@H](OCc1ccc(F)cc1)C(=O)N[C@H]1c2ccccc2C[C@H]1O` [Example 13, N1,N6-di[(1S,2R)-2-hydroxy-2,3-dihydro-1H-1-indenyl]-(2R,3R,4R,5R)-2,5-di(4-fluorobenzyloxy)-3,4-dihydroxyhexanediamide], for which the Ki at purified HIV proteinase (setting [1]) is 0.07 nM. Besides, in the assay with HIV-1 (setting [2]), the EC50 was determined as 0.2 µg/mL (≈ 0.29 µM).

Regarding `CNC(=O)C(NC(=O)C(OCc1ccc(-c2ccccc2)cc1)C(O)C(O)C(OCc1ccc(-c2ccccc2)cc1)C(=O)NC(C(=O)NC)C(C)C)C(C)C` [Example 14, N1,N6-di[(1S)-2-methyl-1-(methylcarbamoylpropyl]-(2R,3R,4R,5R)-2,5-di[(4-phenylbenzyl)oxy]-3,4-dihydroxyhexanediamide], the Ki at purified HIV proteinase is 0.67 nM. The compound also had an EC50 in the assay on HIV-1 (setting [3]) of 0.04 µg/mL (≈ 0.0522 µM).

With `CNC(=O)[C@@H](NC(=O)[C@H](OCc1ccc(-c2ccsc2)cc1)[C@H](O)[C@@H](O)[C@@H](OCc1ccc(-c2ccsc2)cc1)C(=O)N[C@H](C(=O)NC)C(C)C)C(C)C` [Example 15, N1,N6-di[(1S)-2-methyl-1-(methylcarbamoyl)propyl]-(2R,3R,4R,5R)-2,5-di[4-(3-thienyl)benzyloxy]-3,4-dihydroxyhexanediamide], at purified HIV proteinase, the affinity corresponds to a Ki of 1.2 nM. The EC50 in the assay with HIV-1 (setting [3]) turned out to be 0.03 µg/mL (≈ 0.0385 µM).

For `CNC(=O)[C@@H](NC(=O)[C@H](OCc1ccccc1)[C@H](O)[C@@H](O)[C@@H](OCc1ccccc1)C(=O)N[C@H](C(=O)NC)c1ccccc1)c1ccccc1` [Example 16, N1,N6-di[(1S)-1-phenyl-1-(methylcarbamoyl)methyl]-(2R,3R,4R,5R)-2,5-di(benzyloxy)-3,4-dihydroxyhexanediamide], the inhibition constant Ki at purified HIV proteinase (read-out: (Ki μM)) came out at 2.3 nM. Moreover, the EC50 with HIV-1 (setting [3]) amounted to 1 µg/mL (≈ 1.46 µM).

With `CNC(=O)C(NC(=O)C(OCc1cccc(F)c1)C(O)C(O)C(OCc1cccc(F)c1)C(=O)NC(C(=O)NC)C(C)C)C(C)C` (stereo not drawn) [Example 17], the Ki on purified HIV proteinase (setting [1]) came to 2 nM. Besides, the EC50 with HIV-1 (setting [2]) is 0.8 µg/mL (≈ 1.23 µM).

Regarding `O=C(N[C@H]1c2ccccc2C[C@H]1O)[C@H](OCc1cccc(F)c1)[C@H](O)[C@@H](O)[C@@H](OCc1cccc(F)c1)C(=O)N[C@H]1c2ccccc2C[C@H]1O` [Example 18, N1,N6-di[(1 S,2R)-2-hydroxy-2,3-dihydro-1H-1-indenyl]-(2R,3R,4R,5R)-2,5-di(3-fluorobenzyloxy)-3,4-dihydroxyhexanediamide], on purified HIV proteinase (setting [1]), the inhibition constant (Ki) amounted to 50 nM. Besides, the EC50 with HIV-1 (setting [2]) turned out to be 0.5 µg/mL (≈ 0.726 µM).

Turning to `CNC(=O)C(NC(=O)C(OCc1ccccc1F)C(O)C(O)C(OCc1ccccc1F)C(=O)NC(C(=O)NC)C(C)C)C(C)C` [Example 19, N1,N6-di[(1S)-2-methyl-1-(methylcarbamoyl)propyl]-(2R,3R,4R,5R)-2,5-di[4-(2-fluorobenzyl)oxy]-3,4-dihydroxyhexanediamide], the Ki at purified HIV proteinase (setting [1]) is 0.5 nM. In addition, the EC50 with HIV-1 (setting [2]) came out at 0.8 µg/mL (≈ 1.23 µM).

`CNC(=O)C(NC(=O)C(OCc1ccc(F)cc1F)C(O)C(O)C(OCc1ccc(F)cc1F)C(=O)NC(C(=O)NC)C(C)C)C(C)C` [Example 20, N1,N6-di[(1S)-2-methyl-1-(methylcarbamoyl)propyl]-(2R,3R,4R,5R)-2,5-di[4-(2,4-difluorobenzyl)oxy]-3,4-dihydroxyhexanediamide]: the Ki on purified HIV proteinase (setting [1]) is 0.1 nM. In addition, in the assay on HIV-1 (setting [2]), the EC50 came to 0.9 µg/mL (≈ 1.31 µM).

With `O=C(N[C@H]1c2ccccc2C[C@H]1O)[C@H](OCc1ccc(F)cc1F)[C@H](O)[C@@H](O)[C@@H](OCc1ccc(F)cc1F)C(=O)N[C@H]1c2ccccc2C[C@H]1O` [Example 21, N1,N6-di[(1S,2R)-2-hydroxy-2,3-dihydro-1H-1-indenyl]-(2R,3R,4R,5R)-2,5-di(2,4-difluorobenzyloxy)-3,4-dihydroxyhexanediamide], on purified HIV proteinase (setting [1]), the Ki came to 0.38 nM. Further, the EC50 in the assay on HIV-1 (setting [2]) turned out to be 0.1 µg/mL (≈ 0.138 µM).

On to `CNC(=O)C(NC(=O)C(OCc1ccc(-c2ccccn2)cc1)C(O)C(O)C(OCc1ccc(-c2ccccn2)cc1)C(=O)NC(C(=O)NC)C(C)C)C(C)C` [Example 22, N1,N6-di[(1S)-2-methyl-1-(methylcarbamoyl)propyl]-(2R,3R,4R,5R)-2.5-di[4-(2-pyridyl)benzyloxy]-3,4-dihydroxyhexanediamide], for which, at purified HIV proteinase, the Ki was 0.61 nM. In the assay on HIV-1 (setting [3]), this compound had an EC50 of 0.4 µg/mL (≈ 0.52 µM).

Regarding `CNC(=O)[C@@H](NC(=O)[C@H](OCc1ccc(-c2cccc([N+](=O)[O-])c2)cc1)[C@H](O)[C@@H](O)[C@@H](OCc1ccc(-c2cccc([N+](=O)[O-])c2)cc1)C(=O)N[C@H](C(=O)NC)C(C)C)C(C)C` [Example 24, N1,N6-di[(1S)-2-methyl-1-(methylcarbamoyl)propyl]-(2R,3R,4R,5R)-2,5-di[(4-(3-nitrophenyl)benzyl)oxy]-3,4-dihydroxyhexanediamide], the affinity at purified HIV proteinase corresponds to a Ki of 1.4 nM. This compound also registered an EC50 in the assay on HIV-1 (setting [3]) of 0.4 µg/mL (≈ 0.467 µM).

`CNC(=O)[C@@H](NC(=O)[C@H](OCc1ccc(-c2cccs2)cc1)[C@H](O)[C@@H](O)[C@@H](OCc1ccc(-c2cccs2)cc1)C(=O)N[C@H](C(=O)NC)C(C)C)C(C)C` [Example 25, N1,N6-di[(1S)-2-methyl-1-(methylcarbamoyl)propyl]-(2R,3R,4R,5R)-2,5-di[4-(2-thienyl)benzyloxy]-3,4-dihydroxyhexanediamide] had a Ki at purified HIV proteinase of 0.17 nM. In the assay with HIV-1 (setting [3]), this compound yielded an EC50 of 0.02 µg/mL (≈ 0.0257 µM).

In the assay with HIV-1 (second part of Table 1, head EC50, MT4 cells, HIV-1, 6 days, XTT), `CC(C)[C@H](NC(=O)[C@H](OCc1ccccc1)[C@H](O)[C@@H](O)[C@@H](OCc1ccccc1)C(=O)N[C@H]1c2ccccc2C[C@H]1O)C(=O)NCc1ccccn1` [Example 28, N1-[(1S,2R)-2-hydroxy-2,3-dihydro-1H-1-indenyl]-N6-[(1S)-2-methyl-1-([2-pyridylmethyl]carbamoyl)propyl]-(2R,3R,4R,5R,)-2,5-di(benzyloxy)-3,4-dihydroxyhexanediamide] yielded an EC50 of 0.2 µg/mL (≈ 0.281 µM).
